According to PMC6505943, “Identification of a potential allosteric site of Golgi α-mannosidase II using computer-aided drug design” (PLoS ONE, 2019):
“Also recorded” adds a separate entry of the source. Where two headings read alike, the source gives them in different places. Each block holds one compound with its values, some of them ahead of it.

Key:
[1] = test system: β-glucosidase of sweet almonds; experiment: selectivity enzyme assay with β-glucosidase of sweet almonds (4-MU-Glc substrate); assay type: biochemical
Protocol: (§1) Inhibition assays with dGMII were performed at pH 5.75 in MES buffer (40 mM), supplemented with bovine serum albumin 1.1% (0.1% final concentration in MES buffer) and ZnSO4-solution 1.1% (0.1% final concentration in MES buffer). The recombinantly expressed and purified enzyme was added to a final concentration of 0.002 mg/mL per well. 4-Methylumbellifer-7-yl-α-D-mannopyranoside (4-MU-Man) was synthesized (S1 File and S2 Fig) and used as substrate with a final concentration of 1 mM per well. The total reaction volume was 50 μL and the mixture was incubated at 37°C for five minutes. […] The release of 4-methylumbelliferone was measured for 15 min by fluorescence spectroscopy using Greiner 96 Flat Bottom Black Polystyrol plates and a Tecan Reader Infinite F200 PRO equipped with a filter system (355 nm excitation and 485 nm emission). Assays in order to investigate the selectivity of compounds between different mannosidases were carried out on JBM. Assays concerning the selectivity between the desired mannosidase inhibition and a potential glucosidase inhibition were carried out on the β-glucosidase of sweet almonds using 4-methylumbelliferyl-β-D-glucopyranoside (4-MU-Glc) as substrate. The substrate 4-MU-Glc was synthesized as described in the supplementary information (S1 File and S3 Fig). JBM and β-glucosidase from sweet almonds were purchased from Sigma Aldrich. […]

[2] = target: T1, Golgi α-mannosidase II from Drosophila melanogaster (dGMII) (Drosophila melanogaster, UniProt Q24451); experiment: fluorometric enzyme inhibition assay with dGMII (4-MU-Man substrate); assay type: biochemical; settings: for inhibition at 300 µM: at 300 μM compound, 1 mM 4-MU-Man, pH 5.75
T1 construct: His tag; made in house; host or cells: Drosophila Schneider 2 (S2) cells, secreted into the medium
T1 sequence (Q24451 76-1108 limits assumed): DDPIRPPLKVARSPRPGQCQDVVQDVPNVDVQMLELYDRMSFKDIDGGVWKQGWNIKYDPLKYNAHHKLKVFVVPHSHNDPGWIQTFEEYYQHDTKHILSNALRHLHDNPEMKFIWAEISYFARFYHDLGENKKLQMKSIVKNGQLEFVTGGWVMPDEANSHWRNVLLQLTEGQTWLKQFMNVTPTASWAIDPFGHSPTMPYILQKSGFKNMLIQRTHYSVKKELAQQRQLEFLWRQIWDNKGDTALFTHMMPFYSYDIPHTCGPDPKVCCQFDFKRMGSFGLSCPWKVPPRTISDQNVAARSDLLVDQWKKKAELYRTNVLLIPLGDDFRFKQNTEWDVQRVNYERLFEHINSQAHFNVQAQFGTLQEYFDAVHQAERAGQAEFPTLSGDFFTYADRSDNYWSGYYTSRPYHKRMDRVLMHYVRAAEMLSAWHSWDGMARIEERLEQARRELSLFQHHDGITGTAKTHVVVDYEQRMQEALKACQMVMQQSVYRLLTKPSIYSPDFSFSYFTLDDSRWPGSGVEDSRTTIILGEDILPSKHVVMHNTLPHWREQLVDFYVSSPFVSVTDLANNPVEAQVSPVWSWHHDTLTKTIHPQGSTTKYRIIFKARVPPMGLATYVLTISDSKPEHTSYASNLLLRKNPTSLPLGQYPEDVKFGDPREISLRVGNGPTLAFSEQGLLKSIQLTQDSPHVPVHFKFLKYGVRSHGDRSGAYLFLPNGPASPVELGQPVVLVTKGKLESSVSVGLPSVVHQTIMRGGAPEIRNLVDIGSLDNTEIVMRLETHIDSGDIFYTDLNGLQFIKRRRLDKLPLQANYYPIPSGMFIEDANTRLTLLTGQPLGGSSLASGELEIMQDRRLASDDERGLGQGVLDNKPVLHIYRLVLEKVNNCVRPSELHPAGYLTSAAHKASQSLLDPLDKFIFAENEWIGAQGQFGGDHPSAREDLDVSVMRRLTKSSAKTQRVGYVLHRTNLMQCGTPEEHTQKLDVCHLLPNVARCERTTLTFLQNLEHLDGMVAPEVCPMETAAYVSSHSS
Protocol: Inhibition assays with dGMII were performed at pH 5.75 in MES buffer (40 mM), supplemented with bovine serum albumin 1.1% (0.1% final concentration in MES buffer) and ZnSO4-solution 1.1% (0.1% final concentration in MES buffer). The recombinantly expressed and purified enzyme was added to a final concentration of 0.002 mg/mL per well. 4-Methylumbellifer-7-yl-α-D-mannopyranoside (4-MU-Man) was synthesized (S1 File and S2 Fig) and used as substrate with a final concentration of 1 mM per well. The total reaction volume was 50 μL and the mixture was incubated at 37°C for five minutes. […] The release of 4-methylumbelliferone was measured for 15 min by fluorescence spectroscopy using Greiner 96 Flat Bottom Black Polystyrol plates and a Tecan Reader Infinite F200 PRO equipped with a filter system (355 nm excitation and 485 nm emission). Assays in order to investigate the selectivity of compounds between different mannosidases were carried out on JBM. Assays concerning the selectivity between the desired mannosidase inhibition and a potential glucosidase inhibition were carried out on the β-glucosidase of sweet almonds using 4-methylumbelliferyl-β-D-glucopyranoside (4-MU-Glc) as substrate. The substrate 4-MU-Glc was synthesized as described in the supplementary information (S1 File and S3 Fig). JBM and β-glucosidase from sweet almonds were purchased from Sigma Aldrich. The enzyme β-glucosidase from sweet almonds was diluted in citrate buffer in order to obtain a concentration of 0.04 mg/mL. The inhibition assays were carried out at a pH of 5.0 in citrate buffer (20 mM). The substrate concentration was chosen to be 1 mM per well in accordance with the results of several KM value determinations since this concentration ensures good enzyme activity (KM = 1.9 ± 0.1 mM). Inhibition assays JBM were performed in the same buffer as for dGMII. The final concentration of the enzyme per well was 0.003 mg/ml. The substrate 4-MU-Man was used with a final concentration of 0.4 mM per well. The conducted assays with JBM and the β-glucosidase from sweet almonds were performed as described for dGMII.
The most promising compounds according to the molecular modeling studies were tested at 300 μM final concentration except for compound 24 which was tested at 100 μM per well due to the small amount available. […] The inhibition was calculated with the following Eq (2): Inhibition(%)=(1−activity(withinhibitor)/activity(withoutinhibitor))∙100 (2)
KM values were calculated using the Michaelis-Menten kinetics Eq (3) v=vmax[S]/KM+[S] (3) whereby vmax is the maximal velocity, [S] the substrate concentration and KM the substrate concentration yielding a velocity of vmax/2.
IC50 values were calculated using following Eq (4): y=ymax−ymin/1+([I]/IC50)^S+ymin (4) whereby ymax is defined as 100% enzyme activity, ymin as 0% enzyme activity, s is defined as the slope of the linear part of the curves (Hill coefficient), and [I] represents the inhibitor concentration. For the KM value determination, substrate concentrations ranging from 0.4 to 8.0 mM for dGMII and from 0.008 to 1.6 mM for JBM were used. For the IC50 determination of swainsonine, concentrations ranging from 6 to 120 nM were applied. […] The program GraFit (5.0.13, Erithacus Software, Horley, Surrey, UK (2006)) was used to calculate the IC50 values.

JBM = target: T2, JBM (Canavalia ensiformis, UniProt C0HJB3); experiment: selectivity enzyme assay with JBM (4-MU-Man substrate); assay type: biochemical, Jack bean
T2 construct: purchased Sigma Aldrich
T2 sequence (C0HJB3 1-562 limits assumed): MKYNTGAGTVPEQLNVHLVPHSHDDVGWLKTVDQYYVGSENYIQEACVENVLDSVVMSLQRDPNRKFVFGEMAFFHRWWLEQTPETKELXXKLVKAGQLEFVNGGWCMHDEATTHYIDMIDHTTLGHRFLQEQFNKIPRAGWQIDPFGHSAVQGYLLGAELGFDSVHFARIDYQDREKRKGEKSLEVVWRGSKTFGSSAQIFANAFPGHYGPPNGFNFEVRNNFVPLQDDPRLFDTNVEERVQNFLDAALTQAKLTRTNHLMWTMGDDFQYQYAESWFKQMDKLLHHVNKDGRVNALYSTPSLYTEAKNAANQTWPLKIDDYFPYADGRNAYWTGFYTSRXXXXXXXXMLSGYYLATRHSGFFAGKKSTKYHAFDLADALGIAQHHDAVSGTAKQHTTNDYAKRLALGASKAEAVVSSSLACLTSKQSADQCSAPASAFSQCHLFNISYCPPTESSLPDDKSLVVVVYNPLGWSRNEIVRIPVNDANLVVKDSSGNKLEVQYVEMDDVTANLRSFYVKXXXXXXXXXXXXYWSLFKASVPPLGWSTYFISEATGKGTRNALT
T2 sequence (C0HJB3 563-981 limits assumed): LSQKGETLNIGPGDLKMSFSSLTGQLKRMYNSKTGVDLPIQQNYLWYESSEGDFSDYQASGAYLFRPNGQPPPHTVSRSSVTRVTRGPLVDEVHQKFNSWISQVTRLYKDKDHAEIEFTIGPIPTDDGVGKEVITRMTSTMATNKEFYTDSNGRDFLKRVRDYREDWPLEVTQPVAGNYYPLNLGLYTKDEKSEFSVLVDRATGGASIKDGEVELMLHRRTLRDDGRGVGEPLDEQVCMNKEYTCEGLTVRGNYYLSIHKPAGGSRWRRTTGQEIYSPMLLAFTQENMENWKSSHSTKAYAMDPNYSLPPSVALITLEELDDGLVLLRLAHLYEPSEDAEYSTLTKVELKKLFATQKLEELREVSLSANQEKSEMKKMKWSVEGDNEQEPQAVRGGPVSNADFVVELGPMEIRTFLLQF
Protocol: as §1, with “Fig).” for “Fig). JBM and β-glucosidase from sweet almonds were purchased from Sigma Aldrich.”
KM values were calculated using the Michaelis-Menten kinetics Eq (3) v=vmax[S]/KM+[S] […]

Km ([1]; substrate of β-glucosidase from sweet almonds): 1900 ± 100 µM
Compound: Cc1cc(=O)oc2cc(O[C@@H]3O[C@H](CO)[C@@H](O)[C@H](O)[C@H]3O)ccc12 [4-MU-Glc, 4-methylumbelliferyl-β-D-glucopyranoside, reference compound]

Km ([2]; substrate of dGMII): 3600 ± 300 µM
Km (JBM; substrate of JBM): 600 ± 60 µM
Compound: Cc1cc(=O)oc2cc(O[C@H]3O[C@H](CO)[C@@H](O)[C@H](O)[C@@H]3O)ccc12 [4-MU-Man, 4-Methylumbellifer-7-yl-α-D-mannopyranoside, reference compound]

mode of inhibition ([2]; IC50 at varying substrate concentrations 0.1 to 3 mM): non-competitive inhibition
inhibition at 300 µM [2]: ~46%
ligand efficiency ([2]; based on the inhibitory activity observed in the fluorometric assay): approximately 0.20 kcal/mol
IC50 ([2]; dGMII, 4-MU-Man substrate, read-out: IC50): 217 ± 44.3 µM
inhibition at 300 µM (JBM; at 300 μM, 0.4 mM 4-MU-Man): 70%
Compound: N#CC(C(=O)C1CCCCN1C(=O)c1cccnc1)c1ccccn1 (centres unmarked) [Compound 18]
inhibition of the β-glucosidase of sweet almonds ([1]; at 300 μM, 1 mM 4-MU-Glc, pH 5.0): no significant inhibition; also recorded: did not exhibit significant inhibition

inhibition at 300 µM [2]: ~41%
Compound: O=C(Cc1ccn[nH]1)NC[C@@H](O)c1cc2ccccc2s1 [Compound 20]

Compound: O[C@H]1[C@H]2[C@H](O)CCCN2C[C@H]1O [swainsonine, reference compound]
IC50 [2]: 0.034 ± 0.0014 µM
